# Laboratory results taken from US20110136792A1, “NOVEL CARBOXYLIC ACID ANALOGS AS GLYCOGEN SYNTHASE ACTIVATORS” (priority 2009, published 2011).
# pEC50: −log10 of the molar value.
# Tested on: glycogen synthase
# Assay: Glycogen Synthase (GS) Assay
# Format: biochemical
# Settings: coupled pyruvate kinase/lactate dehydrogenase assay, absorbance at 340 nm; for pEC50: compound concentration needed to give 50% maximum activation; for GS SC200: compound concentration needed to stimulate 200% of the enzyme activity
# Method: The following tests were carried out in order to determine the activity of the compounds of formula (I).
# Twelve μL per well of substrate solution containing glycogen (4.32 mg/ml), 2.67 mM UDP-glucose, 21.6 mM phospho(enol)pyruvate and 2.7 mM NADH in 30 mM glycylglycine, pH 7.3 buffer was added into a polystyrene 384-well assay plate (BD Biosciences).
# Compound solutions (8 μL/well) at various concentrations (0-300 μM) were added to the assay plate (columns 5-24). Compound solution contains 30 mM glycylglycine, pH 7.3, 40 mM KCl, 20 mM MgCl2, 9.2% DMSO, with (columns 15-24) or without (columns 5-14) 20 mM glucose 6-phosphate.
# Enzyme solution (12 μL/well) containing glycogen synthase (16.88 μg/ml), pyruvate kinase (0.27 mg/ml), lactate dehydrogenase (0.27 mg/ml) in 50 mM Tris-HCl, pH 8.0, 27 mM DTT and bovine serum albumin (BSA, 0.2 mg/ml) was added to the assay plate (columns 3-24). As a blank control, enzyme solution without glycogen synthase was added into the top half wells of columns 1-2. To the bottom half wells of columns 1-2 were added a known activator, glucose 6-phosphate (at final concentration 5 mM) in addition to the enzyme solution. The reaction mixture was incubated at room temperature. The assay plate was then read for absorbance at 340 nm on an Envision reader every 3 minutes up to a total of 15 minutes.
# The enzyme activity (with or without compound) was calculated by the reaction rate and represented by the optical density change (δOD) per minute. Percent stimulation of glycogen synthase activity by a compound at various concentrations was calculated by the following formula: […]
# Where Rs is the reaction rate of the enzyme in the presence of compound and Rt is the reaction rate of the enzyme in the absence of compound.
# SC200 is defined as the compound concentration that is needed to stimulate 200% of the enzyme activity. EC50 is defined as the compound concentration that is needed to give 50% maximum activation.
# Compounds from Examples 1 through Example 64 were assayed according to assay procedures described above and the result is listed in Table 1 below: […]
SMILES,pEC50,GS SC200
"O=C(O)C1CCS(=O)(=O)N1Cc1cccc(COc2ccc(-c3cc(F)c(F)cc3Cl)cc2)c1 (racemic) [Example 40, 2-[3-(2′-Chloro-4′,5′-difluoro-biphenyl-4-yloxymethyl)-benzyl]-1,1-dioxo-1lambda*6*-isothiazolidine-3-carboxylic acid]",6.70,0.04 µM
"COc1cc(F)c(F)cc1-c1ccc(OCc2cccc(CN(CC(=O)O)S(=O)(=O)c3ccccc3)c2)cc1 [Example 8, {Benzenesulfonyl-[3-(4′,5′-difluoro-2′-methoxy-biphenyl-4-yloxymethyl)-benzyl]-amino}-acetic acid]",6.04,0.17 µM
"COc1cc(F)c(F)cc1-c1ccc(OCc2cccc(CN(CC(=O)O)C(=O)[C@@H]3CCCO3)c2)cc1 [Example 25, [[3-(4′,5′-Difluoro-2′-methoxy-biphenyl-4-yloxymethyl)-benzyl]-((S)-tetrahydro-furan-2-carbonyl)-amino]-acetic acid]",6.39,0.07 µM
"O=C(O)C1CCS(=O)(=O)N1Cc1ccc(F)c(COc2ccc(-c3ccc(F)cc3F)cc2)c1 (stereo not drawn) [Example 41, 2-[3-(2′,4′-Difluoro-biphenyl-4-yloxymethyl)-4-fluoro-benzyl]-1,1-dioxo-1lambda*6*-isothiazolidine-3-carboxylic acid]",6.82,0.07 µM
"COc1cc(F)c(F)cc1-c1ccc(OCc2cccc(CN(CC(=O)O)C(=O)OC(C)C)c2)cc1 [Example 6, {[3-(4′,5′-Difluoro-2′-methoxy-biphenyl-4-yloxymethyl)-benzyl]-isopropoxycarbonyl-amino}-acetic acid]",6.33,0.03 µM
"O=C(O)[C@H]1CCS(=O)(=O)N1Cc1csc(COc2ccc(-c3cc(F)c(F)cc3F)cc2)n1 [Example 59, (R)-1,1-Dioxo-2-[2-(2′,4′,5′-trifluoro-biphenyl-4-yloxymethyl)-thiazol-4-ylmethyl]-1lambda*V-isothiazolidine-3-carboxylic acid]",4.78,6.06 µM
"COc1cc(F)c(F)cc1-c1ccc(OCc2cccc(CN(CC(=O)O)C(=O)N3CCOCC3)c2)cc1 [Example 3, [[3-(4′,5′-Difluoro-2′-methoxy-biphenyl-4-yloxymethyl)-benzyl]-(morpholine-4-carbonyl)-amino]-acetic acid]",6.16,0.11 µM
"Cc1cc(F)c(F)cc1-c1ccc(OCc2cccc(CN3[C@@H](C(=O)O)CCS3(=O)=O)c2)cc1 [Example 49, (R)-2-[3-(4′,5′-Difluoro-2′-methyl-biphenyl-4-yloxymethyl)-benzyl]-1,1-dioxo-1lambda*6*-isothiazolidine-3-carboxylic acid]",6.05,0.35 µM
"O=C(O)[C@H]1CCCS(=O)(=O)N1Cc1cccc(COc2ccc(-c3cc(F)c(F)cc3F)cc2)c1 [Example 57, (R)-1,1-Dioxo-2-[3-(2′,4′,5′-trifluoro-biphenyl-4-yloxymethyl)-benzyl]-1lambda*6*-[1,2]thiazinane-3-carboxylic acid]",5.63,1.22 µM
"O=C(O)[C@@H]1CCS(=O)(=O)N1Cc1cccc(COc2ccc(-c3cc(F)c(F)cc3Cl)cc2)c1 [Example 51, (S)-2-[3-(2′-Chloro-4′,5′-difluoro-biphenyl-4-yloxymethyl)-benzyl]-1,1-dioxo-1lambda*6*-isothiazolidine-3-carboxylic acid]",7.00,0.03 µM
"COc1cc(F)c(F)cc1-c1ccc(OCc2cccc(CN3C(C(=O)O)CCS3(=O)=O)c2)cc1 (racemic) [Example 43, 2-[3-(4′,5′-Difluoro-2′-methoxy-biphenyl-4-yloxymethyl)-benzyl]-1,1-dioxo-1lambda*6*-isothiazolidine-3-carboxylic acid]",6.72,0.03 µM
"COc1cc(F)c(F)cc1-c1ccc(OCc2cccc(CN(CC(=O)O)Cc3ccccc3)c2)cc1 [Example 35, {Benzyl-[3-(4′,5′-difluoro-2′-methoxy-biphenyl-4-yloxymethyl)-benzyl]-amino}-acetic acid]",5.84,0.46 µM
"O=C(O)[C@@H]1CCC(=O)N1Cc1cccc(COc2ccc(-c3cc(F)c(F)cc3F)cc2)c1 [Example 53, (S)-5-Oxo-1-[3-(2′,4′,5′-trifluoro-biphenyl-4-yloxymethyl)-benzyl]-pyrrolidine-2-carboxylic acid]",6.89,0.03 µM
"COc1cc(F)c(F)cc1-c1ccc(OCc2cccc(CN(CC(=O)O)C(=O)c3cn(C)cn3)c2)cc1 [Example 29, [[3-(4′,5′-Difluoro-2′-methoxy-biphenyl-4-yloxymethyl)-benzyl]-(1-methyl-1H-imidazole-4-carbonyl)-amino]-acetic acid]",6.47,0.01 µM
"COCC(C)C(=O)N(CC(=O)O)Cc1cccc(COc2ccc(-c3ccc(F)cc3F)cc2)c1 (stereo not drawn) [Example 17, [[3-(2′,4′-Difluoro-biphenyl-4-yloxymethyl)-benzyl]-(3-methoxy-2-methyl-propionyl)-amino]-acetic acid]",5.82,0.36 µM
